Laboratory results reported in patent publication US20260364080A1, “PYRAZOLO-PYRIMIDINONE COMPOUNDS FOR USE IN METHODS OF INHIBITING WEE1 A KINASE” (Acrivon Therapeutics, Inc., priority 2023, published 2026).

Tests used:
[1] = target: T1, recombinant human Wee1A kinase (Homo sapiens, UniProt P30291); assay: Wee1A kinase binding assay (LanthaScreen Eu time-resolved FRET); details: 30 nM tracer 178, 5 nM Wee1A kinase, 2 nM Eu-labeled antibody; 60 minutes at room temperature; read-out: Wee1A kinase Binding IC50
T1 construct: full length Wee1 kinase was expressed by baculovirus in insect cells; purchased Invitrogen PV3817; host or cells: insect cells (baculovirus)
T1 sequence (P30291 whole entry): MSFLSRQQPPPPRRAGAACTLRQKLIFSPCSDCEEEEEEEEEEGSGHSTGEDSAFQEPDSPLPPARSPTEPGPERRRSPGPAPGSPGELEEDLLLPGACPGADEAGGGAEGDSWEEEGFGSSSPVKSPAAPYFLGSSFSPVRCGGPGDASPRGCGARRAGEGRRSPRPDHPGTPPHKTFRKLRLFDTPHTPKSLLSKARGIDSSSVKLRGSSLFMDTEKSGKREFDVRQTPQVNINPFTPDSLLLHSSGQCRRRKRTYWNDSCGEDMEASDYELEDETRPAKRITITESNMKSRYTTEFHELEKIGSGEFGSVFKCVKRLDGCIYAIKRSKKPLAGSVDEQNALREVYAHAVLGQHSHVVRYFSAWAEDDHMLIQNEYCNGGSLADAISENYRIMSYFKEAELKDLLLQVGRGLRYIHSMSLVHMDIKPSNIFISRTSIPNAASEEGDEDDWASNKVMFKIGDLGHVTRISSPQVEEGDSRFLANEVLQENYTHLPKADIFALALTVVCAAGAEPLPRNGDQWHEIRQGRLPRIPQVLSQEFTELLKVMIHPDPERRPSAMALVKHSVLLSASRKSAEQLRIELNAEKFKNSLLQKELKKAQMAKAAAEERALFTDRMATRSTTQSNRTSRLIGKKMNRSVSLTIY
In short: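 Full-length, baculovirus-expressed GST-tagged Wee1A (5 nM) was mixed with 2 nM Eu-anti-GST antibody, 30 nM kinase tracer 178 and compound (1% DMSO). Buffer was 50 mM HEPES pH 7.5, 10 mM MgCl2, 1 mM EGTA, 0.01% Brij-35, incubated 60 min at room temperature. TR-FRET 665/615 nm emission ratios from duplicates were curve-fitted.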

[2] = target: T2, Myt1 kinase (recombinant PMYT-1) (Homo sapiens, UniProt Q99640); assay: Myt1 kinase binding assay (LanthaScreen Eu Kinase Binding Assay); details: 3 nM tracer 178, 2.5 nM PMYT-1, 1 nM Eu-labeled antibody; read-out: Myt1 kinase Binding IC50
T2 construct: full length PMYT-1 was expressed by baculovirus in insect cells; purchased Invitrogen A30984; host or cells: insect cells (baculovirus)
T2 sequence (Q99640 1-499): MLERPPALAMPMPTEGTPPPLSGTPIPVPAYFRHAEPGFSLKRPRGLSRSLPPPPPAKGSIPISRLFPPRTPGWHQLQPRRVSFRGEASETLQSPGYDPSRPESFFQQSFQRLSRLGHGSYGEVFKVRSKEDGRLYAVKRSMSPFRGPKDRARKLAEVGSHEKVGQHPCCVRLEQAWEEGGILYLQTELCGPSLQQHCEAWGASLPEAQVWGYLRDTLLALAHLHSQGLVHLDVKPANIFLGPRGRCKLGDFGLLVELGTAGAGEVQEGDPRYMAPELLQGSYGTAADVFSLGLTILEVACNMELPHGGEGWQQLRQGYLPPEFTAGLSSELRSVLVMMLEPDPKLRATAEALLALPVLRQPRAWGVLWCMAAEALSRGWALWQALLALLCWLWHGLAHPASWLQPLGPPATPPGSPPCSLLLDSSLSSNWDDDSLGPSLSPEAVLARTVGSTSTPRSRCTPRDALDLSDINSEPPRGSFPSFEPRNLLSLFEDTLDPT
In short: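 The binding affinity of compounds for Myt1 kinase was measured with a LanthaScreen Europium (Eu) Kinase Binding Assay, a time-resolved FRET format in which test compounds compete against a labeled kinase tracer, and the results were expressed as IC50 values describing compound binding to Myt1.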

[3] = target: T3, Myt1 kinase (CDK1 Thr14 phosphorylation in DAOY medulloblastoma cells) (Homo sapiens, UniProt Q99640); assay: AlphaLISA assay, Myt1 kinase target engagement (phospho-CDK1 Thr14) in DAOY cells; format: cell-based; details: 4 h treatment, read-out: CDK1 Thr14 Phosphorylation EC50
T3 construct: pCDK1 Thr14 AlphaLISA read-out
T3 sequence (Q99640 1-499): T2 sequence (Q99640 1-499)
In short: (§1)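 Cells seeded at 10,000 (DAOY) or 20,000 (ACHN) per well, treated 24 h later for 4 h with compound at 7–5000 nM. Lysates analysed by AlphaLISA SureFire Ultra phospho-CDK1 (Thr14) with donor/acceptor beads; EC50 from dose-response curves.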

[4] = target: T4, Wee1A kinase (CDK1 Tyr15 phosphorylation in ACHN renal cell carcinoma cells) (Homo sapiens, UniProt P30291); assay: High-content imaging of pCdk1 Y15, Wee1A kinase target engagement in ACHN cells; format: cell-based; details: 4 h treatment, nuclear positivity for pCdk1 Y15 vs DMSO control, read-out: CDK1 Tyr15 Phosphorylation EC50
T4 construct: pCDK1 Tyr15 immunofluorescence read-out
T4 sequence (P30291 whole entry): as the sequence (P30291 whole entry) above
In short: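 ACHN cells exposed to compound for 4 h over 7–5,000 nM or 0.3–200 nM, then fixed and immunostained for pCDK1 Y15 with DAPI nuclear counterstain. The percentage of pCdk1 Y15 nucleus-positive cells relative to DMSO control was imaged per well; EC50 from dose-response curves.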

ACHN cells = assay: Cell Titer Glo viability assay, ACHN cells; format: cell-based; details: Homo sapiens, 144 h, absolute EC50
In short: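 Cells grown in MEM with 10% FCS were seeded at 500 (A427), 400 (ACHN) or 250 (DAOY) per well and treated the next day with compound at 17 to 10 000 nM. Viability relative to untreated control was read at 144 h by CellTiter-Glo 2.0.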

DAOY cells = assay: Cell Titer Glo viability assay, DAOY cells; format: cell-based; details: Homo sapiens, 144 h, absolute EC50
Description: (§2) Each of an ACHN renal cell carcinoma cell line (ATCC) and a DAOY medulloblastoma cell line, and an A427 lung cancer line were cultured in Minimum Essential Medium Eagle supplemented with 10% fetal calf serum (Sigma), 1% Penicillin-Streptomycin and 10 mM HEPES buffer (HyClone). Cell cultures were kept in a humidified incubator at 37 °C and 5% CO2. Cells were routinely tested for Mycoplasma contamination.
(§3) ACHN cells, DAOY cells, or A427 cells were seeded at a density of 400, 250, or 500 cells per well respectively, in tissue culture treated 384 well plates (Corning Costar). After overnight incubation, cells were treated with drugs at concentrations ranging from 17 to 10 000 nM. Viability compared to untreated control was assessed at 144 h using Cell Titer Glo assay 2.0 (Promega). […] “NT” means the compounds was not tested in the indicated cells.

A427 cells = assay: Cell Titer Glo viability assay, A427 cells; format: cell-based; details: Homo sapiens, A-427, 144 h, absolute EC50
Description: as §2, §3

[5] = target: T5, Myt1 kinase (CDK1 Thr14 phosphorylation in ACHN renal cell carcinoma cells) (Homo sapiens, UniProt Q99640); assay: AlphaLISA assay, Myt1 kinase target engagement (phospho-CDK1 Thr14) in ACHN cells; format: cell-based; details: ACHN cells (marked *); 4 h treatment
T5 construct: pCDK1 Thr14 AlphaLISA read-out
T5 sequence (Q99640 1-499): T2 sequence (Q99640 1-499)
In short: as §1

SMILES	IC50 [1] [nM]	IC50 [2] [nM]	EC50 [3] [nM]	EC50 [4] [nM]	EC50 (ACHN cells) [nM]	EC50 [5] [nM]	EC50 (DAOY cells) [nM]	EC50 (A427 cells) [nM]
C=CCn1c(=O)c2cnc(Nc3ccc(OCCF)cc3)nc2n1-c1cccc(OC2CCNCC2)n1 [Compound 233, 2-allyl-6-((4-(2-fluoroethoxy)phenyl)amino)-1-(6-(piperidin-4-yloxy)pyridin-2-yl)-1,2-dihydro-3H-pyrazolo[3,4-d]pyrimidin-3-one]	< 10	20 to 100	200 to 500	< 100	≤ 100		≤ 100	≤ 100
C=CCn1c(=O)c2cnc(Nc3ccc(OCCF)cc3)nc2n1-c1cccc(OC2CCN(C)CC2)n1 [Compound 234, 2-allyl-6-((4-(2-fluoroethoxy)phenyl)amino)-1-(6-((1-methylpiperidin-4-yl)oxy)pyridin-2-yl)-1,2-dihydro-3H-pyrazolo[3,4-d]pyrimidin-3-one]	< 10	20 to 100	< 200	< 100	≤ 100		≤ 100	≤ 100
C=CCn1c(=O)c2cnc(Nc3ccc(OCC(F)(F)F)cc3)nc2n1-c1cccc(OC2CCN(C)CC2)n1 [Compound 291, 2-allyl-1-[6-(1-methyl-4-piperidyloxy)-2-pyridyl]-6-[p-(2,2,2-trifluoroethoxy)phenylamino]-1,2-dihydro-3H-1,2,5,7-tetraazainden-3-one]	< 10	20 to 100	200 to 500	< 100	≤ 100		≤ 100	≤ 100
C=CCn1c(=O)c2cnc(Nc3cccc(C)c3)nc2n1-c1cccc(OC2CCNCC2)n1 [Compound 296, 2-allyl-1-(6-(piperidin-4-yloxy)pyridin-2-yl)-6-(m-tolylamino)-1,2-dihydro-3H-pyrazolo[3,4-d]pyrimidin-3-one]	< 10	20 to 100	200 to 500	< 100	≤ 100		≤ 100	≤ 100
C=CCn1c(=O)c2cnc(Nc3ccc4nc(C)oc4c3)nc2n1-c1cccc(OC2CCN(C)CC2)n1 [Compound 311, 2-allyl-6-(2-methyl-1,3-benzoxazol-6-ylamino)-1-[6-(1-methyl-4-piperidyloxy)-2-pyridyl]-1,2-dihydro-3H-1,2,5,7-tetraazainden-3-one]	< 10	20 to 100	< 200	< 100	≤ 100		≤ 100	
C=CCn1c(=O)c2cnc(Nc3ccc4sncc4c3)nc2n1-c1cccc(OC2CCN(C)CC2)n1 [Compound 320, 2-allyl-6-(1,2-benzisothiazol-5-ylamino)-1-[6-(1-methyl-4-piperidyloxy)-2-pyridyl]-1,2-dihydro-3H-1,2,5,7-tetraazainden-3-one]	< 10	< 20	200 to 500	< 100	≤ 100		≤ 100	
C=CCn1c(=O)c2cnc(Nc3ccc4cccnc4c3)nc2n1-c1cccc(OC2CCN(C)CC2)n1 [Compound 335, 2-allyl-1-[6-(1-methyl-4-piperidyloxy)-2-pyridyl]-6-(7-quinolylamino)-1,2-dihydro-3H-1,2,5,7-tetraazainden-3-one]	< 10	< 20	200 to 500	< 100	≤ 100		≤ 100	

More lines, main results first:

IC50 [1] [nM]	IC50 [2] [nM]	EC50 [3] [nM]	EC50 [4] [nM]	EC50 (ACHN cells) [nM]	EC50 [5] [nM]	SMILES	EC50 (DAOY cells) [nM]	EC50 (A427 cells) [nM]
< 10	< 20	< 200	< 100	≤ 100		C=CCn1c(=O)c2cnc(Nc3ccc4c(cnn4C)c3)nc2n1-c1cccc(OC2CCN(C)CC2)n1 [Compound 109, 2-allyl-6-(1-methyl-1H-indazol-5-ylamino)-1-[6-(1-methyl-4-piperidyloxy)-2-pyridyl]-1,2-dihydro-3H-1,2,5,7-tetraazainden-3-one]	≤ 100	≤ 100
< 10	20 to 100		< 100	≤ 100	500 to 1000	CCn1c(=O)c2cnc(Nc3ccc4c(cnn4C)c3)nc2n1-c1cccc(OC2CCN(C)CC2)n1 [Compound 114, 2-ethyl-6-(1-methyl-1H-indazol-5-ylamino)-1-[6-(1-methyl-4-piperidyloxy)-2-pyridyl]-1,2-dihydro-3H-1,2,5,7-tetraazainden-3-one]	≤ 100	100 to 500
< 10	20 to 100		< 100	≤ 100		C=CCn1c(=O)c2cnc(Nc3cnn(C)c3)nc2n1-c1cccc(OC2CCN(C)CC2)n1 [Compound 137, 2-allyl-1-[6-(1-methyl-4-piperidyloxy)-2-pyridyl]-6-(1-methyl-4-pyrazolylamino)-1,2-dihydro-3H-1,2,5,7-tetraazainden-3-one]		≤ 100
< 10	< 20	200 to 500	< 100	≤ 100		C=CCn1c(=O)c2cnc(Nc3ccc(Cl)cc3)nc2n1-c1cccc(OC2CCN(C)CC2)n1 [Compound 142, 2-allyl-6-((4-chlorophenyl)amino)-1-(6-((1-methylpiperidin-4-yl)oxy)pyridin-2-yl)-1,2-dihydro-3H-pyrazolo[3,4-d]pyrimidin-3-one]	100 to 500	100 to 500
< 10	100 to 500		< 100	≤ 100		C=CCn1c(=O)c2cnc(Nc3cc(C)cc(F)c3)nc2n1-c1cccc(NC2CCN(C)CC2)n1 [Compound 161, 2-allyl-6-(3-fluoro-5-toluidino)-1-[6-(1-methyl-4-piperidylamino)-2-pyridyl]-1,2-dihydro-3H-1,2,5,7-tetraazainden-3-one]		100 to 500
< 10	20 to 100		< 100	≤ 100	200 to 500	C=CCn1c(=O)c2cnc(Nc3ccc4c(ccn4C)c3)nc2n1-c1cccc(OC2CCN(C)CC2)n1 [Compound 186, 2-allyl-6-((1-methyl-1H-indol-5-yl)amino)-1-(6-((1-methylpiperidin-4-yl)oxy)pyridin-2-yl)-1,2-dihydro-3H-pyrazolo[3,4-d]pyrimidin-3-one]	≤ 100	
< 10	20 to 100	< 200	< 100	≤ 100		C=CCn1c(=O)c2cnc(Nc3ccc4c(c3)ncn4C)nc2n1-c1cccc(OC2CCN(C)CC2)n1 [Compound 211, 2-allyl-6-(1-methyl-1H-1,3-benzimidazol-5-ylamino)-1-[6-(1-methyl-4-piperidyloxy)-2-pyridyl]-1,2-dihydro-3H-1,2,5,7-tetraazainden-3-one]	≤ 100	≤ 100
